Data reported in US8372176B2, “Metal complexes comprising a ligand derived from 2-aryl-2-hydroxyacetic acid and a divalent or trivalent metal cation, and their use” (Clariant Specialty Fine Chemicals (France), priority 2006, dated 2013).

How the values were obtained:
[1] = Dissolution of FeCl3 with ligand in aqueous phase at neutral or basic pH; Fe in filtrate by ICP-OES; format: physicochemical
Method: (§1) The invention is illustrated without implied limitation by the following examples, in which the amounts of metals in solution were measured by ICP-OES (Inductively Coupled Plasma-Optical Emission Spectroscopy).
(§2) In the examples which follow, the term “theoretical % by weight of metal in solution” is understood to mean the ratio, expressed as percentage, of the total weight of metal initially introduced into the reaction medium to the weight of the filtrate recovered and analysed.
(§3) 4.92 g (0.025 mol) of OHMNa are dissolved in 19.17 ml of water. 20.27 g of an aqueous solution comprising 6.76 g of FeCl3 hexahydrate (0.025 mol) are added over 15 min while maintaining the temperature of the reaction medium at approximately 20° C. The pH of the solution is adjusted to 7 by addition of a 50% by weight aqueous sodium hydroxide solution (5.87 g). The mixture is subsequently stirred at ambient temperature for 24 h. After filtering and washing with water, 59.9 g of a solution with a dark brown-red colour are recovered.
8.11 g of FeCl3 hexahydrate are dissolved in 12 ml of water. The pH is adjusted to 7 by addition of a 50% by weight aqueous sodium hydroxide solution. After filtering and washing with water, less than 10 ppm of Fe are measured in the filtrate.
2.05 g (0.01 mol) of 5-chloro-2-hydroxymandelic acid are suspended in 15 ml of water. 0.8 g of 50% by weight sodium hydroxide solution (0.01 mol) is added in order to obtain a solution. 17.7 g of an aqueous solution comprising 2.7 g of FeCl3 hexahydrate (0.01 mol) are added over 15 min while maintaining the temperature of the reaction medium at approximately 20° C. The pH of the solution is adjusted to 7 by addition of 2.4 g of a 50% by weight aqueous sodium hydroxide solution. The mixture is subsequently stirred at ambient temperature for 24 h. After filtering, 35.1 g of a solution with a dark brown-red colour are recovered.
The procedure of Example 1 or 2 is repeated but using, according to the invention, the ligands B, C, D and E of formula (I), the structures of which are described in Table 1 below, and varying the ligand/metal molar ratios, if appropriate.
The procedure of Example 2 is repeated by using the compounds G, H, I and J as ligands, the structures of which are described in Table 4 below, and varying the ligand/metal molar ratios, if necessary.
The procedure described in Example 1 is repeated but adjusting the pH of the solution to 6, 7, 9, 10 and 12.
A solution composed of 40 g of water and of 12.97 g of FeCl3 hexahydrate (0.048 mol) is added over 15 min to 43.5 g of an aqueous solution comprising 10.2 g of OHM.2Na (0.048 mol) while maintaining the temperature of the reaction medium at approximately 20° C. The pH of the solution is adjusted to 7 by addition of a 50% by weight aqueous sodium hydroxide solution (5.1 g). The mixture is subsequently stirred at ambient temperature for 5 weeks without specific protection with regard to light. After filtering, 80 g of a solution with a dark brown-red colour are recovered.
1.98 g (0.01 mol) of OHMNa are dissolved in 8 ml of water.
12.7 g of an aqueous solution comprising 2.7 g of FeCl3 hexahydrate (0.01 mol) are added over 15 min while maintaining the temperature of the reaction medium at approximately 20° C. The pH of the solution is adjusted to 7 by addition of 2.3 g of a 50% by weight aqueous sodium hydroxide solution. A suspension of 1.0 g (0.01 mol) of CaCO3 in 15 g of water is subsequently added. A few drops of 37% HCl are added to adjust the pH to 7. The mixture is subsequently stirred at ambient temperature for 24 hours. After filtering, 35.0 g of a solution with a dark brown-red colour are recovered.

[2] = commercial chelates, background statement; cited from earlier work
[3] = Iron content of the dried powder by ICP-OES; format: physicochemical; conditions: ICP-OES measurement on powder
Method: as §1
The dark brown-red solution obtained in Example 1 is concentrated by distillation of water. The residue is dried in an oven at 50° C. for 48 h. A red-brown powder is obtained which comprises 12% by weight of iron by ICP-OES measurement.
A measurement on a powder formed of [Fe(o,o-EDDHA)Na] chelate available commercially gives only 7.8% by weight of iron.

[4] = background statement, on average; cited from earlier work
[5] = Dissolution of Al(III) cations with OHMNa; metal in filtrate by ICP-OES; format: physicochemical
Method: as §1, §2, §3
(§4) The procedure of Example 1 is repeated but substituting FeCl3 by AlCl3, CrCl3.6H2O and Cu(OAc)2.H2O respectively.

[6] = Dissolution of Cr(III) cations with OHMNa; metal in filtrate by ICP-OES; format: physicochemical
Method: as §1, §2, §3, §4

[7] = Dissolution of Cu(II) cations with OHMNa; metal in filtrate by ICP-OES; format: physicochemical
Method: as §1, §2, §3, §4

[8] = Dissolution of Mg(II) cations with OHM.2Na at pH 12; format: physicochemical; conditions: 0.05 mol OHM.2Na
Method: (§5) To an aqueous solution (60 g) containing 0.05 mol of OHM.2Na, are added 9.9 g of an aqueous solution containing 0.025 mole of magnesium chloride (MgCl2). The pH is set at 12 with 1 g of an aqueous solution of HCl 1N. […] Without the OHM.2Na, the magnesium precipitate at pH 12 as a white solid (Mg(OH)2).
as §5, with “added 19.8” for “added 9.9”, “containing 0.05” for “containing 0.025”, “with 2.6” for “with 1”, “of NaOH 30%.” for “of HCl 1N.”

[9] = Table 6, comparative ligands, pH 7
[10] = pH 7, stirred 24 h at ambient temperature, filtrate
[11] = pH 7, total Fe introduced / weight of filtrate
[12] = Table 6, pH 7, ligand/iron molar ratio of 2/1

Question: With `O=C(O)C(O)c1ccccc1` (stereo not shown) [compound 4, reference compound] as the compound, how does the “% by weight measured (Fe in solution)” value [1, 9] read?
Answer: 0.09 % by weight

Question: And the “Theoretical % by weight of Fe in solution” value [1, 9]?
Answer: 2.38 % by weight

Question: And the “dissolution of iron in aqueous solution at pH 7 (in words)” value ([1]; pH 7)?
Answer: do not make possible or make possible only to a very slight extent the dissolution of iron

Question: Which solubility in water [2] does the source give for `O=C(O)C(NCCNC(C(=O)O)c1ccccc1O)c1ccccc1[O-].[Fe].[Na+]` (stereo not shown) [[Fe(o,o-EDDHA)Na]] here?
Answer: 150-300 g/l of water

Question: What about the “% by weight of iron in the powder” value [3] of the same compound?
Answer: 7.8 % by weight

Question: What about the “level of iron of commercial chelates” value [4] of the same compound?
Answer: ~6 % by weight

Question: What does the source list for `CCOc1cc(C(O)C(=O)O)ccc1O` (stereo not shown) [Example 4]?
Answer: % by weight measured (Fe in solution) ([1]; Table 3, ligands B-E, pH 7): 1.5 % by weight; Theoretical % by weight of Fe in solution ([1]; Table 3, ligands B-E, pH 7): 1.83 % by weight

Question: With `O=C([O-])C(O)c1ccccc1O.[Na+]` (stereo not shown) [OHMNa, sodium salt of 2-(2-hydroxyphenyl)-2-hydroxyacetic acid] as the compound, how does the “Theoretical % by weight of metal in solution” value ([5]; pH 7) read?
Answer: 1 % by weight

Question: What about the “% by weight measured (metal in solution)” value ([5]; pH 7, 24 h) of the same compound?
Answer: 1 % by weight

Question: What about the “Theoretical % by weight of metal in solution” value ([6]; pH 7) of the same compound?
Answer: 1.83 % by weight

Question: And the “% by weight measured (metal in solution)” value ([6]; pH 7, 24 h)?
Answer: 1.40 % by weight

Question: What about the “% by weight measured (Fe in solution)” value ([1]; OHMNa, pH 6) of the same compound?
Answer: 1.7 % by weight

Question: What about the “Theoretical % by weight of Fe in solution” value ([1]; OHMNa, pH 6) of the same compound?
Answer: 2.18 % by weight

Question: What about the “% by weight measured (Fe in solution)” value ([1]; OHMNa, pH 7) of the same compound?
Answer: 2.3 % by weight

Question: And the “Theoretical % by weight of Fe in solution” value ([1]; OHMNa, pH 7)?
Answer: 2.33 % by weight

Question: And the “% by weight measured (Fe in solution)” value ([1]; OHMNa, pH 9)?
Answer: 1.9 % by weight

Question: What about the “Theoretical % by weight of Fe in solution” value ([1]; OHMNa, pH 9) of the same compound?
Answer: 1.96 % by weight

Question: What about the “% by weight measured (Fe in solution)” value ([1]; OHMNa, pH 10) of the same compound?
Answer: 2.7 % by weight

Question: And the “Theoretical % by weight of Fe in solution” value ([1]; OHMNa, pH 10)?
Answer: 2.80 % by weight

Question: What about the “% by weight measured (Fe in solution)” value ([1]; OHMNa, pH 12) of the same compound?
Answer: 1.9 % by weight

Question: What about the “Theoretical % by weight of Fe in solution” value ([1]; OHMNa, pH 12) of the same compound?
Answer: 1.92 % by weight

Question: What about the “Theoretical % by weight of Fe in solution” value ([1]; pH 7, in the presence of CaCO3) of the same compound?
Answer: 1.59 % by weight

Question: And the “% by weight of Fe in solution measured” value ([1]; pH 7, in the presence of CaCO3 (0.01 mol), 24 hours)?
Answer: 1.4 % by weight

Question: And the “% by weight of Fe in solution measured” value [1, 10]?
Answer: 2.3 % by weight

Question: And the “Theoretical % by weight of Fe in solution” value [1, 11]?
Answer: 2.33 % by weight

Question: And the “Theoretical % by weight of metal in solution” value ([7]; pH 7)?
Answer: 1.43 % by weight

Question: What about the “% by weight measured (metal in solution)” value ([7]; pH 7, 24 h) of the same compound?
Answer: 1.40 % by weight

Question: Which “% by weight measured (Fe in solution)” value ([1]; Table 3, ligands B-E, pH 7) does the source give for `O=C(O)C(O)c1ccc(O)c(O)c1` (stereo not shown) [Example 5] here?
Answer: 1.2 % by weight

Question: What about the “Theoretical % by weight of Fe in solution” value ([1]; Table 3, ligands B-E, pH 7) of the same compound?
Answer: 1.49 % by weight

Question: Which results are given for `O=C(O)C(O)c1cc(Cl)ccc1O` (stereo not shown) [5-chloro-2-hydroxymandelic acid]?
Answer: % by weight of Fe in solution measured [1, 10]: 1.3 % by weight; Theoretical % by weight of Fe in solution [1, 11]: 1.59 % by weight

Question: For `O.O.O.O.O.O.[Cl-].[Cl-].[Cl-].[Fe+3]` [compound 1, FeCl3 hexahydrate, reference compound], which “Fe measured in the filtrate” value ([1]; FeCl3 hexahydrate without ligand, pH 7) is on record?
Answer: less than 10 ppm

Question: With `O=C([O-])C(O)c1ccc(O)cc1.[Na+]` (stereo not shown) [Example 3] as the compound, how does the “% by weight measured (Fe in solution)” value ([1]; Table 3, ligands B-E, pH 7) read?
Answer: 1.1 % by weight

Question: What about the “Theoretical % by weight of Fe in solution” value ([1]; Table 3, ligands B-E, pH 7) of the same compound?
Answer: 1.47 % by weight

Question: What does the source list for `O=C(O)Cc1ccccc1O` [compound 2, reference compound]?
Answer: % by weight measured (Fe in solution) [1, 9]: <0.0025 % by weight; Theoretical % by weight of Fe in solution [1, 9]: 2.88 % by weight; % by weight measured (Fe in solution) [1, 12]: 0.01 % by weight; Theoretical % by weight of Fe in solution [1, 12]: 1.67 % by weight; dissolution of iron in aqueous solution at pH 7 (in words) ([1]; pH 7): do not make possible or make possible only to a very slight extent the dissolution of iron

Question: For `O=C(O)C(O)c1cc(F)ccc1O` (stereo not shown) [Example 6], which “% by weight measured (Fe in solution)” value ([1]; Table 3, ligands B-E, pH 7) is on record?
Answer: 1.4 % by weight

Question: And the “Theoretical % by weight of Fe in solution” value ([1]; Table 3, ligands B-E, pH 7)?
Answer: 1.46 % by weight

Question: For `O=C([O-])C(O)c1ccccc1[O-].[Na+].[Na+]` (stereo not shown) [OHM.2Na, disodium salt of 2-(2-hydroxyphenyl)-2-hydroxyacetic acid], which “state of the solution after 24 hours under stirring” value ([8]; 0.025 mole MgCl2) is on record?
Answer: still homogeneous, without any solid

Question: And the “state of the solution after 24 hours under stirring” value ([8]; 0.05 mole MgCl2)?
Answer: still homogeneous, without any solid

Question: And the “Theoretical % by weight of Fe in solution” value ([1]; pH 7, 5 weeks stirring)?
Answer: 3.35 % by weight

Question: What about the “% by weight of Fe in solution measured” value ([1]; pH 7, stirred 5 weeks at ambient temperature without protection from light) of the same compound?
Answer: 3.2 % by weight

Question: Which “% by weight measured (Fe in solution)” value [1, 9] does the source give for `O=C(O)C(=O)c1ccccc1O` [compound 3, reference compound] here?
Answer: 0.5 % by weight

Question: What about the “Theoretical % by weight of Fe in solution” value [1, 9] of the same compound?
Answer: 4.09 % by weight

Question: And the “dissolution of iron in aqueous solution at pH 7 (in words)” value ([1]; pH 7)?
Answer: do not make possible or make possible only to a very slight extent the dissolution of iron

Question: What does the source list for `O=C(O)C(O)c1ccccc1Cl` (stereo not shown) [compound 5, reference compound]?
Answer: % by weight measured (Fe in solution) [1, 9]: 0.01 % by weight; Theoretical % by weight of Fe in solution [1, 9]: 4.73 % by weight; dissolution of iron in aqueous solution at pH 7 (in words) ([1]; pH 7): do not make possible or make possible only to a very slight extent the dissolution of iron
